Results taken from patent publication US12234229B2, “Sphingosine kinase inhibitor amidoxime prodrugs” (University of Virginia Patent Foundation, priority 2016, dated 2025).
pKi: −log10 of the molar value.

Tests used:
[1] = molecular target: T1, human sphingosine kinase type 2 (hSPHK2) (Homo sapiens, UniProt Q9NRA0); assay: Sphingosine kinase assay, recombinant human SPHK2 ([32P]S1P product, scintillation counting); assay type: biochemical; settings: read-out: activity hSPHK2 (range estimates of KI values)
T1 construct: purchased; host or cells: Sf9 insect cells (baculovirus)
T1 sequence (Q9NRA0 1-654): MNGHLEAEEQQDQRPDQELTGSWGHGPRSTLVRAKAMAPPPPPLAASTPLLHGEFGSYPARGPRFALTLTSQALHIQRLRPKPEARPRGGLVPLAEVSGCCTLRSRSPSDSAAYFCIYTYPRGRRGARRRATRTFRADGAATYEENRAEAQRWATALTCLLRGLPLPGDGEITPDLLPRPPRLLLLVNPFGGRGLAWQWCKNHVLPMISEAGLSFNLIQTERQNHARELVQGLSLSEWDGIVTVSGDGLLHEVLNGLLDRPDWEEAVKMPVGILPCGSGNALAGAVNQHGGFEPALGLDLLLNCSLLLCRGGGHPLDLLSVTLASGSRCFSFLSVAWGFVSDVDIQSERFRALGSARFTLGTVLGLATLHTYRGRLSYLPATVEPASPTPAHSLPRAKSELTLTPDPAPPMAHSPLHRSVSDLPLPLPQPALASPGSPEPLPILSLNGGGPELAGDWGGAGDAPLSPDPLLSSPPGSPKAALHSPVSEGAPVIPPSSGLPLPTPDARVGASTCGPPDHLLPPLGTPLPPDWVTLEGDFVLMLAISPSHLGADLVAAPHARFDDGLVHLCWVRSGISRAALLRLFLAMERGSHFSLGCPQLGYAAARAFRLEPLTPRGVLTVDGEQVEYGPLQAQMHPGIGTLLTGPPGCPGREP
Procedure: (§1) Recombinant baculovirus encoding human sphingosine kinase type 1 (SPHK1) was used to infect Sf9 insect cells and after 2-5 days, cleared lysates were prepared and used without further purification. Human SPHK2, which was partially purified from baculovirus-infected Sf9 cell lysates, was purchased from a commercial source. Sphingosine kinase assays were performed using standard protocols. Product [^32P]S1P was recovered by binding to cation exchange paper and quantified by scintillation counting.

[2] = molecular target: T2, human sphingosine kinase type 1 (hSPHK1) (Homo sapiens, UniProt Q9NYA1); assay: Sphingosine kinase assay, recombinant human SPHK1 ([32P]S1P product, scintillation counting); assay type: biochemical; settings: read-out: activity hSPHK1 (range estimates of KI values)
T2 construct: made in house; host or cells: Sf9 insect cells (baculovirus)
T2 sequence (Q9NYA1 whole entry): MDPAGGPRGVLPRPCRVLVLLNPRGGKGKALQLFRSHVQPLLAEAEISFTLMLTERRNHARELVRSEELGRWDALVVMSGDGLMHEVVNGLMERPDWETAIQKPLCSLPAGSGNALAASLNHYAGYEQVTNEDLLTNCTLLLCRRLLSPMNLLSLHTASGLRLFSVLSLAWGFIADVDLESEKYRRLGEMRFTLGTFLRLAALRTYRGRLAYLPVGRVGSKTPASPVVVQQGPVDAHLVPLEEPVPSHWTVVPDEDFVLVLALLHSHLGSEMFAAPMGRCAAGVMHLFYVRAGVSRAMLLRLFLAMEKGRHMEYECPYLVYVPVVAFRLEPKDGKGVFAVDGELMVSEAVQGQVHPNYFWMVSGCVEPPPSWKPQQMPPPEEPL
Procedure: as §1

[3] = test system: sphingosine kinase type 2 (SphK2); assay: Blood sphingosine 1-phosphate (S1P) in mice after oral dosing, LC-MS-MS; assay type: in vivo; settings: C57Bl/6 mice, oral gavage 20 mg/kg, blood drawn immediately, at 2 h, 6 and 24 h, FIG. 1A
Procedure: FIGS. 1A-1B. Four C57Bl/6 mice were dosed by oral gavage with 20 mg/kg of Compound 6. At the indicated times, blood was drawn, whole prepared for analysis, and the amount sphingosine 1-phosphate (S1P) was quantified by LC-MS-MS (FIG. 1A). The rise in S1P is indicative of inhibition of sphingosine kinase type 2 (SphK2).
Four C57Bl/6 mice were dosed by oral gavage with 20 mg/kg of Compound 6 (Example 113). Blood was drawn immediately, at 2h, 6, and 24 h after administration, whole prepared for analysis, and the amount of sphingosine 1-phosphate (S1P) was quantified by LC-MS-MS, as shown in FIG. 1A.

[4] = patients, 1-yr trial; cited from earlier work

`CCCCCCCCOc1ccc(-c2noc([C@@H]3[C@@H](O)CCN3C(=N)N)n2)cc1C(F)(F)F` [Compound 6A, amino((2S,3S)-3-hydroxy-2-(3-(4-(octyloxy)-3-(trifluoromethyl)phenyl)-1,2,4-oxadiazol-5-yl)pyrrolidin-1-yl)methaniminium chloride] showed a pKi [1] of over 6.00.

`C=COCc1ccc(-c2noc([C@@H]3CCCN3C(=N)N)n2)cc1C(F)(F)F` [Compound 77A] gave a pKi [2] of under 5.00 and a pKi [1] of under 5.00.

In the case of `CCCCCCCCOc1ccc(-c2noc([C@@H]3[C@@H](O)CCN3/C(N)=N/O)n2)cc1C(F)(F)F` [Compound 6, (2S,3S)—N,3-dihydroxy-2-(3-(4-(octyloxy)-3-(trifluoromethyl)phenyl)-1,2,4-oxadiazol-5-yl)pyrrolidine-1-carboximidamide], the “amount of sphingosine 1-phosphate (S1P) in blood” value [3] was “rise in S1P”.

`CCCCCCCCCn1ccc2cc(-c3noc([C@@H]4CCCN4C(=N)N)n3)ccc21` [Compound 17A, (S)-amino(2-(3-(1-nonyl-1H-indol-5-yl)-1,2,4-oxadiazol-5-yl)pyrrolidin-1-yl)methaniminium chloride] gave a pKi [1] of over 6.00.

In the case of `CCCCCCCCc1ccc(CCC(N)(CO)CO)cc1` [fingolimod, 2-amino-2-[2-(4-octylphenyl)ethyl] propane 1,3-diol], the “hypertension (blood pressure rise)” value [4] is listed as 2-3 mmHg.
